According to US20220339260A1, “METHOD FOR PRODUCING INSULIN-PRODUCING CELL USING DIHYDROINDOLIZINONE DERIVATIVES” (TOKYO INSTITUTE OF TECHNOLOGY, priority 2019, published 2022):

System: human iPS cell Toe strain
Assay: Effect to promote differentiation from human iPS cells into insulin-producing cells (insulin-positive cell rate, Reference Example 1)
Assay type: cell-based
Parameters: key to Activity: the sum of activity values at the two concentrations was obviously higher than the control untreated with compounds while being lower than the positive control was expressed as +; the sum was equivalent to the positive control was expressed as ++; the sum was higher than the positive control was expressed as +++
Conditions: activity intensity: sum of activity values (increment in insulin-positive cell rate) at 2 μM and 10 μM compared with positive control (compound of Synthesis Example 1)
Source text: The evaluation system of the effect (efficacy) to promote differentiation from human iPS cells into insulin-producing cells was constructed with reference to known information (Non Patent Document 6). Further, the medium used in each differentiation stage was also produced with reference to known information (differentiation media A to E (Media A to E) described in Non Patent Document 6 were used respectively for stages 1 to 5; however, a medium free from GLP-1 receptor agonist and nicotinamide was used as differentiation medium E).
In order to evaluate the efficacy of each compound, the compound of Synthesis Example 1 was used as a positive control, and dimethylsulfoxide (DMSO) (SIGMA, D2650) with a final concentration of 0.1% was used as a control untreated with compounds. Each compound was dissolved in DMSO, and two types of compound solutions were prepared so as to have final concentrations of 2 μM and 10 μM after the compound was added to the medium. In the following evaluation, the compound solutions were added to the medium to 0.1% that is the final concentration of DMSO.
First, induction from human iPS cell Toe strain (National Institutes of Biomedical Innovation, Health and Nutrition) into cells on day 7 of culture (2 days after replacement with differentiation medium C (cells in the differentiation process from FOXA2-positive primitive gut tube cells into PDX1-positive pancreatic progenitor cells)) was performed according to the method of Non Patent Document 6 for “inducing differentiation from human iPS cells into pancreatic β cells”, and the cells were collected and thereafter stored in liquid nitrogen using Bambanker (NIPPON Genetics Co, Ltd.) at 1×10^7 cells/mL/tube, to produce a cell stock for evaluation. The cell stock was dissolved at the start of the evaluation of efficacy, suspended in differentiation medium C for stage 3 (DMEM high glucose (Life technologies, 11965092), 0.25 μM SANT-1, 0.1 μM LDN193189 (Stemgent, 04-0074), 10 μM SB431542, 2 μM Retinoic acid (Stemgent, 04-0021), 1% B27 serum free supplement (Life technologies, 17504044) and thereafter seeded in a 96-well plate (Corning, #3340) coated with Synthemax II (Corning, #5656) at 1×10^5 cells/well. After culturing for 2 days, the medium was removed, and new differentiation medium C for stage 3 with the compound or only DMSO added was added thereto at 100 μL/well. After culturing for 2 days, the medium was removed, and new differentiation medium D for stage 4 (DMEM high glucose, 0.1 μM LDN193189, 5 μM TGF-β type I receptor kinase inhibitor II (Calbiochem 616452), 0.3 μM (−)-indolactam V (Enzo life science ALX-420-011-C300), 1% B27 serum free supplement) with the compound or only DMSO added was added thereto at 100 μL/well. After culturing for 2 to 3 days, the medium was removed, and new differentiation medium E for stage 5 (GLP-1 receptor agonist and nicotinamide-free; Knockout […] (Life technologies, 12660012), 1% B27 serum free supplement) with the compound or only DMSO added was added thereto at 200 μL/well. After culturing for 2 days, the medium was removed, and a 4% paraformaldehyde phosphorus acid buffer (Wako, 163-20145) was added thereto at 150 μL/well and left standing for 30 to 60 minutes at room temperature to fix the cells. A phosphorus acid buffer (PBS) (Takara, T9181) containing 1% Triton X-100 (Sigma, T8787) was left standing for 15 minutes at room temperature, then washed with PBS-T (Takara, T9183), and was blocked for 1 hour using 20% Blocking One (Nacalai tesque, Tokyo, Japan) diluted with PBS-T at room temperature. After the removal of Blocking One, guinea pig anti-insulin antibody (Abcam, ab7842) diluted 200-fold with 20% Blocking One was added thereto at 50 μL/well, followed by standing at 4° C. overnight. […]

Row | Compound | Activity
1 | O=C1CCC(C(=O)Nc2ncc(-c3ccccc3)s2)n2cccc21 (stereo not shown) [Example 1] | ++
2 | COC(=O)c1ccc(-c2cnc(NC(=O)C3CCC(=O)c4cccn43)s2)cc1 (stereo not shown) [Example 2] | ++
3 | CN(C)C(=O)c1ccc(-c2cnc(NC(=O)C3CCC(=O)c4cccn43)s2)cc1 (stereo not shown) [Example 3] | +
4 | O=C1CCC(C(=O)Nc2ncc(-c3ccc4c(c3)OCO4)s2)n2cccc21 (stereo not shown) [Example 4] | ++
5 | O=C(O)c1ccc(-c2cnc(NC(=O)C3CCC(=O)c4cccn43)s2)cc1 (stereo not shown) [Example 5] | +
6 | NC(=O)c1ccc(-c2cnc(NC(=O)C3CCC(=O)c4cccn43)s2)cc1 (stereo not shown) [Example 6] | +
7 | N#Cc1ccc(-c2cnc(NC(=O)C3CCC(=O)c4cccn43)s2)cc1 (stereo not shown) [Example 7] | +
8 | CN(C)C(=O)COc1ccc(-c2cnc(NC(=O)C3CCC(=O)c4cccn43)s2)cc1 (stereo not shown) [Example 8] | ++
9 | O=C1CCC(C(=O)Nc2ncc(-c3ccc(OC(F)(F)F)cc3)s2)n2cccc21 (stereo not shown) [Example 9] | +++
10 | CC(C)(C)Oc1ccc(-c2cnc(NC(=O)C3CCC(=O)c4cccn43)s2)cc1 (stereo not shown) [Example 11] | +++
11 | O=C1CCC(C(=O)Nc2ncc(-c3ccc(Cl)cc3)s2)n2cccc21 (stereo not shown) [Example 12] | ++
12 | O=C1CCC(C(=O)Nc2ncc(-c3cccc(Cl)c3)s2)n2cccc21 (stereo not shown) [Example 13] | ++
13 | O=C1CCC(C(=O)Nc2ncc(-c3ccccc3Cl)s2)n2cccc21 (stereo not shown) [Example 14] | +
14 | O=C1CCC(C(=O)Nc2ncc(-c3cccc(F)c3)s2)n2cccc21 (stereo not shown) [Example 15] | +
15 | O=C1CCC(C(=O)Nc2ncc(-c3ccc(F)cc3)s2)n2cccc21 (stereo not shown) [Example 16] | ++
16 | O=C1CCC(C(=O)Nc2ncc(-c3ccccc3F)s2)n2cccc21 (stereo not shown) [Example 17] | ++
17 | Cc1ccc(-c2cnc(NC(=O)C3CCC(=O)c4cccn43)s2)cc1 (stereo not shown) [Example 18] | ++
18 | Cc1ccccc1-c1cnc(NC(=O)C2CCC(=O)c3cccn32)s1 (stereo not shown) [Example 19] | ++
19 | Cc1cccc(-c2cnc(NC(=O)C3CCC(=O)c4cccn43)s2)c1 (stereo not shown) [Example 20] | ++
20 | O=C1CCC(C(=O)Nc2ncc(-c3ccc(C(F)(F)F)cc3)s2)n2cccc21 (stereo not shown) [Example 21] | +++
21 | COc1ccccc1-c1ccc(-c2cnc(NC(=O)C3CCC(=O)c4cccn43)s2)cc1 (stereo not shown) [Example 22] | +++

Row | Compound | Activity
22 | Cc1ccc(-c2ccc(-c3cnc(NC(=O)C4CCC(=O)c5cccn54)s3)cc2)cc1 (stereo not shown) [Example 23] | +
23 | O=C1CCC(C(=O)Nc2ncc(-c3ccc4ccccc4c3)s2)n2cccc21 (stereo not shown) [Example 24] | +
24 | O=C1CCC(C(=O)Nc2ncc(-c3cccc(OC(F)(F)F)c3)s2)n2cccc21 (stereo not shown) [Example 25] | +++
25 | COc1ccc(-c2cnc(NC(=O)C3CCC(=O)c4cccn43)s2)cc1 (stereo not shown) [Example 26] | ++
26 | COc1cccc(-c2cnc(NC(=O)C3CCC(=O)c4cccn43)s2)c1 (stereo not shown) [Example 27] | ++
27 | Cc1cc(OC(F)(F)F)ccc1-c1cnc(NC(=O)C2CCC(=O)c3cccn32)s1 (stereo not shown) [Example 28] | +++
28 | Cc1cc(-c2cnc(NC(=O)C3CCC(=O)c4cccn43)s2)ccc1OC(F)(F)F (stereo not shown) [Example 29] | +++
29 | O=C1CCC(C(=O)Nc2ncc(-c3ccc(OC(F)(F)F)c(Cl)c3)s2)n2cccc21 (stereo not shown) [Example 30] | +++
30 | O=C1CCC(C(=O)Nc2ncc(-c3ccc(OC(F)(F)F)c(CO)c3)s2)n2cccc21 (stereo not shown) [Example 31] | +
31 | O=C1CCC(C(=O)Nc2ncc(-c3ccc(OCc4ccccc4)cc3)s2)n2cccc21 (stereo not shown) [Example 32] | +++
32 | CC(C)Oc1ccc(-c2cnc(NC(=O)C3CCC(=O)c4cccn43)s2)cc1 (stereo not shown) [Example 33] | +++
33 | Cc1nc(NC(=O)C2CCC(=O)c3cccn32)sc1-c1ccccc1 (stereo not shown) [Example 34] | ++
34 | Cc1nc(NC(=O)C2CCC(=O)c3cccn32)sc1-c1ccc(OC(C)(C)C)cc1 (stereo not shown) [Example 35] | +++
35 | Cc1nc(NC(=O)C2CCC(=O)c3cccn32)sc1-c1ccc(OC(F)(F)F)cc1 (stereo not shown) [Example 36] | +++
36 | O=C1CCC(C(=O)Nc2ncc(-c3ccc(CO)cc3)s2)n2cccc21 (stereo not shown) [Example 37] | +
37 | COCCOc1ccc(-c2cnc(NC(=O)C3CCC(=O)c4cccn43)s2)cc1 (stereo not shown) [Example 38] | +++
38 | O=C1CCC(C(=O)Nc2ncc(-c3ccc(OC(F)F)cc3)s2)n2cccc21 (stereo not shown) [Example 39] | +++
39 | O=C1CCC(C(=O)Nc2ncc(-c3ccc4c(c3)OC(F)(F)O4)s2)n2cccc21 (stereo not shown) [Example 40] | +++
40 | O=C1CCC(C(=O)Nc2ncc(-c3ccc(N4CCOCC4)cc3)s2)n2cccc21 (stereo not shown) [Example 41] | +
41 | CN(C)S(=O)(=O)c1ccc(-c2cnc(NC(=O)C3CCC(=O)c4cccn43)s2)cc1 (stereo not shown) [Example 42] | +
42 | O=C1CCC(C(=O)Nc2ncc(-c3ccc(OCc4ccccc4)c(F)c3)s2)n2cccc21 (stereo not shown) [Example 43] | +++

Row | Compound | Activity
43 | O=C1CCC(C(=O)Nc2ncc(-c3ccc(OCc4ccccc4)cc3F)s2)n2cccc21 (stereo not shown) [Example 44] | +
44 | O=C1CCC(C(=O)Nc2ncc(-c3ccc(OCC(F)(F)F)cc3)s2)n2cccc21 (stereo not shown) [Example 45] | +++
45 | O=C1CCC(C(=O)Nc2ncc(-c3ccc(Oc4ccccc4)cc3)s2)n2cccc21 (stereo not shown) [Example 46] | +++
46 | O=C1CCC(C(=O)Nc2ncc(-c3ccc(Br)cc3)s2)n2cccc21 (stereo not shown) [Example 47] | ++
47 | CC(C)(C)OC(=O)Oc1ccc(-c2cnc(NC(=O)C3CCC(=O)c4cccn43)s2)cc1 (stereo not shown) [Example 48] | +
48 | CC(C)COc1ccc(-c2cnc(NC(=O)C3CCC(=O)c4cccn43)s2)cc1 (stereo not shown) [Example 49] | +++
49 | O=C1CCC(C(=O)Nc2ncc(C3=CCCCC3)s2)n2cccc21 (stereo not shown) [Example 50] | +
50 | CC(C)(C)OC(=O)N1CC=C(c2cnc(NC(=O)C3CCC(=O)c4cccn43)s2)CC1 (stereo not shown) [Example 51] | +++
51 | CC(C)COc1ncc(-c2cnc(NC(=O)C3CCC(=O)c4cccn43)s2)cc1Cl (stereo not shown) [Example 52] | +++
52 | CC(C)(C)OC(=O)N1CC=C(c2cnc(NC(=O)C3CCC(=O)c4cccn43)s2)C1 (stereo not shown) [Example 53] | ++
53 | Cc1ccc(-c2cnc(NC(=O)C3CCC(=O)c4cccn43)s2)o1 (stereo not shown) [Example 54] | +
54 | Cc1nc(C)c(-c2cnc(NC(=O)C3CCC(=O)c4cccn43)s2)s1 (stereo not shown) [Example 55] | +
55 | O=C1CCC(C(=O)Nc2ncc(-c3ccc(Cl)s3)s2)n2cccc21 (stereo not shown) [Example 56] | ++
56 | CC(=O)c1ccc(-c2cnc(NC(=O)C3CCC(=O)c4cccn43)s2)cc1 (stereo not shown) [Example 57] | +
57 | O=C1CC(C(=O)Nc2ncc(-c3ccc(OC(F)(F)F)cc3)s2)n2cccc21 (stereo not shown) [Example 58] | ++
58 | O=C1CCC(C(=O)Nc2nc3ccc(-c4ccc(OC(F)(F)F)cc4)cc3s2)n2cccc21 (stereo not shown) [Example 59] | +++
59 | O=C1CCC(C(=O)Nc2nc3ccc(-c4ccc(OC(F)F)cc4)cc3s2)n2cccc21 (stereo not shown) [Example 60] | ++
60 | O=C1CCC(C(=O)Nc2nc3ccc(-c4ccc5c(c4)OC(F)(F)O5)cc3s2)n2cccc21 (stereo not shown) [Example 61] | +
61 | Cc1cc2n(c1)C(C(=O)Nc1ncc(-c3ccc(OC(F)(F)F)cc3)s1)CCC2=O (stereo not shown) [Example 62] | +++
